Patent US7071197B2, “N,N-disubstituted diazocycloalkanes” (Recordati S.A., priority 2002, dated 2006)

Experiments:
[1] = target: T1, human 5HT1A-serotonergic receptor (Homo sapiens, UniProt P08908); test: [3H]8-OH-DPAT radioligand binding to human recombinant 5-HT1A receptors; conditions: for Ki: [3H]8-OH-DPAT, HeLa cell membranes, read-out: Affinity: Ki; for potency at the 5-HT1A receptor compared with Ex. 5: statistical signficance p<0.01
T1 construct: expressed in transfected cells
T1 sequence (P08908 1-422): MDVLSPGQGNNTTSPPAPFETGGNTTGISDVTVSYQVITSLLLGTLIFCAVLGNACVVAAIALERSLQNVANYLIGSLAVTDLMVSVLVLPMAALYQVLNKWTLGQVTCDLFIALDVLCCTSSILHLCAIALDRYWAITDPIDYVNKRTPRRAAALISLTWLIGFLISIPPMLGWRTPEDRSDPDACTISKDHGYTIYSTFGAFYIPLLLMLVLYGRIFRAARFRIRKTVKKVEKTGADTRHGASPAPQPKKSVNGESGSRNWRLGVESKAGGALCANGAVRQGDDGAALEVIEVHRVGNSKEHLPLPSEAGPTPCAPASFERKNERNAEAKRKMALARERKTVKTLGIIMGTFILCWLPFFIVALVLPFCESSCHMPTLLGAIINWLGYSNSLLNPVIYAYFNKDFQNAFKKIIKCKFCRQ
Experimental: A genomic clone coding for the human 5HT1A-serotonergic receptor was stably transfected in a human cell line (HeLa). HeLa cells were grown as monolayers in Dulbecco's modified Eagle medium (DMEM), containing 10% fetal bovine serum, gentamycin (0.1 mg/ml) and 5% carbon dioxide, at 37° C. The cells were detached from the growth flask at 95% confluence by a cell scraper and were lysed in cold 5 mM Tris and 5 mM EDTA buffer (pH 7.4). The homogenates were centrifuged at 40000×g×20 minutes and the pellets were resuspended in a small volume of cold 5 mM Tris and 5 mM EDTA buffer (pH 7.4) and immediately frozen and stored at −70° C. until use.
[^3H]8-OH-DPAT binding: on the day of experiment, the cell membranes were resuspended in incubation buffer: 50 mM Tris HCl (pH 7.4), 2.5 mM MgCl2, […] (Fargin et al., Nature 335, 358–360, 1988). The membranes were incubated in a final volume of 1 ml for 30 minutes at 30° C. with 1 nM [^3H]8-OH-DPAT, in the absence or presence of the test compounds. Non-specific binding was determined in the presence of 10 μM 5-HT. Incubation was stopped by addition of cold Tris-HCl buffer and rapid filtration through a 0.2%-polyethyleneimine-pretreated Whatman-GF/B or Schleicher-&-Schuell-GF52 filter.
The affinity of the tested compounds was evaluated as inhibition of specific binding of the radioligand to 5-HT1A receptors (IC50) by using the non-linear curve-fitting program (De Lean et al., Am. J. Physiol. 235, E97-E102, 1978). The IC50 value was converted to an affinity constant (Ki) by the equation of Cheng et al., Biochem. Pharmacol. 22, 3099–3108 (1973).

human α1b-adrenoceptor = target: T2, human α1b-adrenoceptor (Homo sapiens, UniProt P35368); test: [3H]prazosin binding to cloned human α1-adrenoceptor subtypes (α1b); conditions: for Ki: [3H]prazosin, CHO cell membranes, read-out: Binding affinity (Ki, nM) α1b; for α1b/5-HT1A: selectivity: ratio of Ki at α1b and Ki at 5-HT1A
T2 construct: expressed in transfected cells
T2 sequence (P35368 1-520): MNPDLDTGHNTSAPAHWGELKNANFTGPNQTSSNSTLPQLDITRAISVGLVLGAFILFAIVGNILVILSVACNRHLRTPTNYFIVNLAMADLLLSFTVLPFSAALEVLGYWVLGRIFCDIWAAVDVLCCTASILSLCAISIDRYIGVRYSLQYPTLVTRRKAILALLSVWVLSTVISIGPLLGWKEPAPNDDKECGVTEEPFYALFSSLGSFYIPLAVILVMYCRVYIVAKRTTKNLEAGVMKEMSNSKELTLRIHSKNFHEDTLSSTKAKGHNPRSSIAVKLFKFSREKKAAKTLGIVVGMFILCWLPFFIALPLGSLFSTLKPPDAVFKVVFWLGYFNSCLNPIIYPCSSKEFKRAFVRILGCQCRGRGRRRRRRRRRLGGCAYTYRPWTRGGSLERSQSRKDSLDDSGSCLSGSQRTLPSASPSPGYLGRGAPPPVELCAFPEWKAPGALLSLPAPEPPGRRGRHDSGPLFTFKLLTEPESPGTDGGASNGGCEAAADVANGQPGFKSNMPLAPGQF
Experimental: Binding to cloned human α1-adrenoceptor subtypes was performed in membranes from CHO cells (chinese hamster ovary cells) transfected by electroporation with DNA expressing the gene encoding each α1-adrenoceptor subtype. Cloning and stable expression of the human α1-adrenoceptor gene was performed as previously described (Testa et al. Pharmacol. Comm., 6: 79–86,1995).
CHO cells were grown in suspension in Iscove's modified Dulbecco's medium, supplemented with 10% fetal calf serum and gentamicin (50 μg/ml), at 37° C. in 7% CO2 in an humidified incubator. Cells were collected by centrifugation, lised in ice-cold Tris 5 mM and EDTA 5 mM buffer (pH 7.4) and gently homogenised. Homogenates were centrifuged at 40000×g×20 min and pellets were resuspended in a small volume of ice-cold Tris 5 mM and EDTA 5 mM buffer (pH 7.4) and immediately frozen and stored at −80° C. until use.
CHO cell membranes were resuspended and incubated in 50 mM Tris, pH 7.4, with 0.2 nM [^3H]prazosin, in a final volume of 1.02 ml for 30 min at 25° C., in absence or presence of competing drugs. Non-specific binding was determined in the presence of 10 μM phentolamine. The incubation was stopped by rapid filtration through 0.2% polyethyleneimine pretreated Schleicher & Schuell GF52 filters using a Tomtec (PerkinElmer) cell harvester. The filters were washed with 3×1 ml of ice-cold Tris buffer, dried and the radioactivity was measured in a Betaplate (Wallac) liquid scintillation counter.
The inhibition of specific binding by the compounds was analysed to estimate the IC50 value by the non-linear curve-fitting program Allfit (De Lean et al. Am. J. Physiol. 235, E97-E102, 1978). The IC50 value is converted to an affinity constant (Ki) by the equation of Cheng & Prusoff (Biochem. Pharmacol. 22: 3099–3108, 1973).

Ki [1] [nM] | potency at the 5-HT1A receptor compared with Ex. 5 [1] | Ki (human α1b-adrenoceptor) [nM] | α1b/5-HT1A (human α1b-adrenoceptor) | Structure (SMILES)
0.13 | more potent than Ex. 5 | 5.9 | 45 | COc1ccccc1N1CCN(CC[C@@H](c2ccccc2F)[C@H](O)C2CCCCC2)CC1 (racemic) [Ex. 1, 1-[(SR-RS)-4-cyclohexyl-4-hydroxy-3-(2-fluorophenyl)-butyl]-4-(2-methoxyphenyl)-piperazine]
0.65 | – | 12 | 18 | COc1ccccc1N1CCN(CC[C@H](c2ccccc2)[C@@H](O)C2CCCCC2)CC1 (racemic) [Ex. 5, 1-[(RS,SR)-4-Cyclohexyl-4-hydroxy-3-phenyl-butyl]-4-(2-methoxyphenyl)-piperazine, reference compound]
0.37 | more potent than Ex. 5 | 11 | 30 | COc1ccccc1N1CCN(CC[C@H](c2ccccc2F)[C@@H](O)C2CCCCC2)CC1 [Ex. 1Y, 1-[(3R,4S)-4-cyclohexyl-4-hydroxy-3-(2-fluorophenyl)-butyl]-4-(2-methoxyphenyl)-piperazine]
0.24 | more potent than Ex. 5 | 11 | 46 | COc1ccccc1N1CCN(CC[C@H](c2ccccc2F)[C@H](O)C2CCCCC2)CC1 [Ex. 2X, 1-[(3R,4R)-4-cyclohexyl-4-hydroxy-3-(2-fluorophenyl)-butyl]-4-(2-methoxyphenyl)-piperazine]
